Paper PMC11195807, “Development of a multi-targeted chemotherapeutic approach based on G-quadruplex stabilisation and carbonic anhydrase inhibition” (Journal of Enzyme Inhibition and Medicinal Chemistry, 2024)

Experiments:
HeLa cells = experiment: MTT assay, HeLa cells under hypoxic conditions (CoCl2); format: cell-based
Procedure: Taking into consideration the good cytotoxicity of C-4,2 on cancer cells and its ability to stabilise GQ structures also in the cellular environment, we decided to further evaluate its antitumor potential by testing it under hypoxic conditions, when expression of high amounts of CA IX occurs. To this aim, HeLa cells were pre-treated for 60 h with a non-toxic concentration of cobalt(II) chloride hexahydrate (CoCl2, 50 μM, Figure S14, Supporting Information), which was employed as the chemical inducer of HIF-1α to establish hypoxia[70]^,[71]. After that, HeLa were exposed to increasing concentrations of C-4,2 or vehicle, for the following 12 h, still in the presence of CoCl2. […]
For the MTT experiments in the presence of normal oxygen levels, HeLa cells were seeded in 96-well plates at a density of 15,000 cells per well (culture medium volume – 100 μL/well) and incubated at 37 °C, for 24 h. […] Finally, the optical density of the samples (at 570 nm) was measured on an ELx800 Absorbance Microplate Reader (BioTek Instruments, Inc., Winooski, VT, USA). The percentage (%) of cell survival for each condition was calculated by using the following equation: % cell survival=OD− OD0/ODCONTROL− OD0×100 where OD is the optical density of the sample, OD0 is the optical density of the background signal, and ODCONTROL is the optical density of the control sample (cells treated with vehicle, 0.5% DMSO). […]

GQ structures = experiment: BG4 immunofluorescence of GQ foci, hypoxic HeLa cells; format: cell-based; conditions: hypoxic HeLa cells (50 μM CoCl2 60 h), 1 µM C-4,2 for 12 h, vs DMSO-treated hypoxic cells
Procedure: Finally, we investigated C-4,2 capability to impact the formation of GQ structures even in hypoxic HeLa cells.
Figure 7. (A) Representative fields showing G4 foci formation detected by immunofluorescence in HeLa cells pre-treated with 50 μM cobalt (II) chloride hexahydrate for 60 h to induce hypoxia and then exposed to 1 µM C-4,2 or vehicle (0.1% DMSO) for the following 12 h, still in the presence of CoCl2. DMSO-treated normoxic HeLa cells are also shown. Scale bar: 10 µm. Upper panels: the merged channels of BG4-stained GQ structures (magenta) and Hoechst-counterstained nuclei (grey) are reported. Lower panels: enlargements from the pictures in the upper panels. (B) Quantification of the cellular BG4 foci in DMSO-treated normoxic HeLa cells, DMSO-treated hypoxic HeLa cells, and C-4,2-treated hypoxic HeLa cells. An average of 50 cells were screened for each condition. […] The statistical significance was calculated using a one-way ANOVA test on GraphPad Prism 8.0.2 (**: p < 0.01, ****: p < 0.0001).
For the IF experiments in the presence of normal oxygen levels, HeLa cells were seeded on sterile coverslips, in a 24-well plate, at a density of 90,000 cells per well, and incubated overnight. […] From there, the cellular and nuclear foci were segmented, and their number or fluorescence intensity was quantified by using the Image Analysis package of ZEISS ZEN 3.1 software.

COc1ccc2cc3[n+](cc2c1OCCCCn1cc(COc2ccc4ccc(=O)oc4c2)nn1)CCc1cc2c(cc1-3)OCO2 [Compound 37, 10-Methoxy-9–(4-(4-(((2-oxo-2H-chromen-7-yl)oxy)methyl)-1H-1,2,3-triazol-1-yl)butoxy)-5,6-dihydro-[1,3]dioxolo[4,5-g]isoquinolino[3,2-a]isoquinolin-7-ium hexafluorophosphate]
cytotoxicity compared with co-exposure to equimolar berberine and C (HeLa cells; 12 h, hypoxia (CoCl2)): greater
IC50 (HeLa cells; Homo sapiens, 60 h pre-treatment with 50 μM CoCl2, then 12 h treatment, hypoxia): 26.5 µM
number of detectable GQs (BG4 foci) (GQ structures): remarkable increase
